Experimental data published in patent US7851484B2, “Certain chemical entities, compositions, and methods” (Cytokinetics, Inc., priority 2007, dated 2010).

tested on: SKM MF; experiment: SKM MF AC1.4: ATPase screen of skeletal sarcomeric proteins with PK/LDH coupled enzyme system; format: biochemical; set-up: AC1.4 Median: unit not given here; details: not given
Procedure: For example, test compounds can be assayed in a highly parallel fashion by using multiwell plates by placing the compounds either individually in wells or testing them in mixtures. Assay components including the target protein complex, coupling enzymes and substrates, and ATP can then be added to the wells and the absorbance or fluorescence of each well of the plate can be measured with a plate reader.
In some embodiments, the method uses a 384 well plate format and a 25 μL reaction volume. A pyruvate kinase/lactate dehydrogenase coupled enzyme system (Huang T G and Hackney D D. (1994) J Biol Chem 269(23):16493-501) can be used to measure the rate of ATP hydrolysis in each well. As will be appreciated by those in the art, the assay components are added in buffers and reagents. The incubation periods can be optimized to give adequate detection signals over the background. The assay can be done in real time giving the kinetics of ATP hydrolysis which increases the signal to noise ratio of the assay.
Just prior to screening, the actin, tropomyosin, and troponin complex are mixed together in the desired ratio (e.g., 7:1:1) to achieve maximal calcium regulation of the actin filament. The screen is conducted at a pCa=6.5. This calcium concentration is in the physiological range during muscle contraction.
To measure the generation of ADP during the reaction, a pyruvate kinase/lactate dehydrogenase/NADH coupled enzyme system (PK/LDH) is added to the actin. The myosin is kept separately. The plates are read in real time so that kinetic curves are obtained. These compounds are in DMSO and were already spotted onto the bottoms of 384 well plates at 10 to 40 μg/ml final concentration.

SKM MF AC1.4 | Molecule
0.82 µM | CCC(CC)n1c(O)nc2ncc(Cl)cc21 [6-chloro-1-(pentan-3-yl)-1H-imidazo[4,5-b]pyridin-2-ol]

same assay, conditions: median

Molecule | AC1.4 Median
CC(C)C[C@H](CO)n1c(O)nc2ncc(Cl)cc21 [1-[(1R)-2-hydroxy-1-(2-methylpropyl)ethyl]-6-chloroimidazo[4,5-b]pyridin-2-ol] | 5.6431
CCC(CC)n1c(O)nc2ncc(Cl)c(C)c21 [6-chloro-1-(ethylpropyl)-7-methylimidazo[4,5-b]pyridin-2-ol] | 3.9463
C=CCn1c(O)nc2ncc(Cl)c(I)c21 [6-chloro-7-iodo-1-prop-2-enylimidazo[4,5-b]pyridin-2-ol] | 23.0211
1-(ethylpropyl)-6-ethynyl-7-methylimidazo[4,5-b]pyridin-2-ol | 2.0265
CCC(CC)n1c(O)nc2ncc(Cl)c(/C=N\OC(C)(C)C)c21 [7-[(1Z)-2-(tert-butoxy)-2-azavinyl]-6-chloro-1-(ethylpropyl)imidazo[4,5-b]pyridin-2-ol] | 19.5317
CCC(CC)(Cn1c(O)nc2ncc(Cl)cc21)c1ccccc1 [6-chloro-1-(2-ethyl-2-phenylbutyl)imidazo[4,5-b]pyridin-2-ol] | 11.0001
6-bromo-1-(ethylpropyl)-7-methylimidazo[4,5-b]pyridin-2-ol | 2.2135
CCC(CC)n1c(O)nc2ncc(Cl)c(/C=N\OCc3ccccc3)c21 [7-[(1Z)-2-(phenylmethoxy)-2-azavinyl]-6-chloro-1-(ethylpropyl)imidazo[4,5-b]pyridin-2-ol] | 42.0392
C=Cc1cnc2nc(O)n(C(CC)CC)c2c1 [1-(pentan-3-yl)-6-vinyl-1H-imidazo[4,5-b]pyridin-2-ol] | 3.0420
CCC(CC)n1c(O)nc2ncc(SC)cc21 [6-(methylthio)-1-(pentan-3-yl)-1H-imidazo[4,5-b]pyridin-2-ol] | 13.7960

Further lines, results first:

AC1.4 Median | Molecule
25.8589 | 6-chloro-1-(methylethyl)imidazo[4,5-b]pyridin-2-ol
0.1667 | C#Cc1cnc2nc(O)n(C(CC)CC)c2c1 [6-ethynyl-1-(pentan-3-yl)-1H-imidazo[4,5-b]pyridin-2-ol]
28.0697 | CC(n1c(O)nc2ncc(Cl)cc21)C(C)(C)C (stereo not drawn) [6-chloro-1-(1,2,2-trimethylpropyl)imidazo[4,5-b]pyridin-2-ol]
0.1028 | 1-(ethylpropyl)-6-ethynyl-2-hydroxyimidazo[4,5-b]pyridine-7-carbonitrile
6.3763 | CC[C@@H](c1ccccc1)n1c(O)nc2ncc(Cl)cc21 [1-((1S)-1-phenylpropyl)-6-chloroimidazo[4,5-b]pyridin-2-ol]
28.2335 | tert-butyl 4-[6-chloro-1-(ethylpropyl)-2-hydroxyimidazo[4,5-b]pyridin-7-yl]-4-hydroxypiperidinecarboxylate
6.7023 | [1-(ethylpropyl)-6-ethynyl-2-hydroxyimidazo[4,5-b]pyridin-7-yl]-N-methylcarboxamide
37.7104 | OC[C@@H](C1CCCCC1)n1c(O)nc2ncc(Cl)cc21 [1-((1R)-1-cyclohexyl-2-hydroxyethyl)-6-chloroimidazo[4,5-b]pyridin-2-ol]
35.2255 | C[C@H](c1ccccc1)n1c(O)nc2ncc(Cl)cc21 [1-((1R)-1-phenylethyl)-6-chloroimidazo[4,5-b]pyridin-2-ol]
31.7670 | C[C@@H](c1ccccc1)n1c(O)nc2ncc(Cl)cc21 [1-((1S)-1-phenylethyl)-6-chloroimidazo[4,5-b]pyridin-2-ol]
1.6866 | CCC(CC)n1c(O)nc2ncc(Cl)cc21 [6-chloro-1-(pentan-3-yl)-1H-imidazo[4,5-b]pyridin-2-ol]
3.5145 | 6-((1Z)prop-1-enyl)-1-(ethylpropyl)imidazo[4,5-b]pyridin-2-ol
7.8719 | 1-(ethylpropyl)imidazo[4,5-b]pyridine-2,6-diol

same assay, conditions: median value (footnote †)

SKM MF AC1.4 (μM) | Molecule
0.1563^† μM | C#Cc1cnc2nc(O)n(C(CC)CC)c2c1 [6-ethynyl-1-(pentan-3-yl)-1H-imidazo[4,5-b]pyridin-2-ol]
3.042^† μM | C=Cc1cnc2nc(O)n(C(CC)CC)c2c1 [1-(pentan-3-yl)-6-vinyl-1H-imidazo[4,5-b]pyridin-2-ol]
13.796^† μM | CCC(CC)n1c(O)nc2ncc(SC)cc21 [6-(methylthio)-1-(pentan-3-yl)-1H-imidazo[4,5-b]pyridin-2-ol]
